Assay: Solubility characterization of 2,6-diphenyl-4,8-diazoadamantan-1-one
Assay type: physicochemical
From the text: This molecule is soluble in propylene glycol and apolar organic solvents, whereas it is insoluble in water and ethanol.

2,6-diphenyl-4,8-diazoadamantan-1-one
solubility in apolar organic solvents (solvent: apolar organic solvents): soluble
solubility in ethanol (solvent: ethanol): insoluble
solubility in propylene glycol (solvent: propylene glycol): soluble
solubility in water (solvent: water): insoluble
